Earlier results as cited in patent publication US12274727B2 (Bazelet Health Systems, Inc., priority 2021, dated 2025).

Tests used:
[1] = with piperine, chronic or single dose regimen
[2] = not given; remark: listed apart in the source
[3] = not given; remark: listed apart in the source
[4] = room temperature
[5] = patch testing in Europe
[6] = not given; remark: listed apart in the source
[7] = after one single oral administration

## C=C(C)[C@@H]1CCC(C)=C[C@H]1c1c(O)cc(CCCCC)cc1O [CBD, Cannabidiol]
After 30 days
  degradation by light, average values: up to 15%
Stored at 37° C. for 30 days
  maximum degradation, average values: up to 20%
[1]
  increase in oral bioavailability compared to control group without piperine: ~2.5 fold
[2]; artificial gastric fluid without pepsin, first study
  formation of THC, yield: 2.9%
[2]; simulated gastric fluid, another study
  conversion into THC (both 8 and 9 isomers): about 49%
[3]; emulsified (micronized) CBD products
  sublingually absorbed: up to 35%
[3]; oral, humans
  oral bioavailability: approximately 6%
[3]; smoked
  bioavailability from smoked product: around 31%
[3]; sublingual
  sublingual bioavailability: 13-19%
[3]; transdermal
  transdermal absorption: about 10%

## CC(C)=CCC1C(=O)C(C(=O)CC(C)C)=C(O)C(O)(CC=C(C)C)C1=O (stereo not drawn) [Humulone, humulone]
[4]
  time to degradation: about 12 weeks

## C=CC(C)(O)CCC=C(C)C (stereo not drawn) [Linalool]
[5]
  people found to be allergic to the oxidized form: 7%

## C=C(C)[C@@H]1CCC(C)=C[C@H]1c1c(O)cc(CCCCC)cc1O [pharmaceutical CBD]
[6]; another trial
  patients reporting similar AEs: 86%
[6]; randomized controlled trial in treatment resistant epilepsy
  patients with AEs reported: 93%

## C=C1CC/C=C(\C)CC[C@@H]2[C@@H]1CC2(C)C [β-caryophyllene]
[7]
  Tmax: > 1 h
